{
  "source": "patent US20130195986A1",
  "about": "“New Particles of Tetracyclines and Protecting Agent” (HOVIONE INTER LTD, priority 2010, published 2013)",
  "origin": "cited, not measured here",
  "test_system": "staining of the teeth and bones and pigmentation of the thyroid gland",
  "conditions": "rats; simultaneous administration of ascorbic acid (vitamin C) with minocycline",
  "data": [
    {"smiles": "O=C1O[C@H]([C@@H](O)CO)C(O)=C1O", "note": "[ascorbic acid]", "values": [
      {"measurement": "staining of the teeth and bones and pigmentation of the thyroid gland", "result": "prevented staining of the teeth and bones and pigmentation of the thyroid gland"}
    ]}
  ]
}
